Data taken from PMC4663552, “Identification of Antiviral Agents Targeting Hepatitis B Virus Promoter from Extracts of Indonesian Marine Organisms by a Novel Cell-Based Screening Assay” (Marine Drugs, 2015).
Like-named read-outs stand apart in the source and are kept apart here.

Legend:
[1] = Cytotoxicity in HepG2.2.15.7 cells (MTS assay); format: cell-based; settings: human, 9 days post-treatment, read-out: CC50 (reduction of cell viability)
Experimental: (§1) HepG2.2.15.7 cells were seeded at 1 × 10^4 cells per well in a collagen coated 96-well plate (Corning, Corning, NY, USA) and incubated at 37 °C for 24 h before treatment. The tested compound was added to the culture medium at the indicated concentrations. The culture medium was exchanged every 3 days for fresh medium containing the compound. The treated cells and culture supernatants were harvested 9 days post-treatment and were subjected to MTS assay and estimation of HBV DNA, respectively. The culture supernatant was mixed with an equal volume of Sidestep lysis and stabilization buffer (Agilent Technologies, Santa Clara, CA, USA). The viral DNA included in the mixture was estimated by real-time quantitative PCR using the THUNDERBIRD Probe qPCR Mix (TOYOBO, Osaka, Japan). The forward and reverse primers targeting HBV surface region are 5′-[…]-3′ and 5′-[…]-3′, respectively. The fluorogenic probe was 5′-FAM-[…]-TAMRA-3 [40].

[2] = tested on: HBV; experiment: Anti HBV activity in HepG2.2.15.7 cells (supernatant HBV DNA, real-time qPCR); format: cell-based, Hepatitis B virus; settings: for EC50: Hepatitis B virus, read-out: EC50 (inhibition of the HBV viral DNA release)
Experimental: as §1

[3] = tested on: MCF-7 cells; parameters: method as in PMID 18198840; settings: MCF-7 cells (a breast cancer cell line); cited from earlier work
[4] = tested on: Tie2 kinase; parameters: method as in PMID 15653332; settings: cited from earlier work
[5] = tested on: HBV core promoter; experiment: Cell-based HBV core promoter assay (luciferase reporter, Huh7 GL4.18 CURS_BC_AeUS cells); settings: Hepatitis B virus, Huh-7, 48 h incubation
Experimental: Huh7 GL4.18 CURS_BC_AeUS cells were seeded at 2 × 10^4 cells per well in a 48-well plate and then treated with 25 µg/mL each extracts 24 h after seeding cells. The treated cells were harvested 48 h post-treatment and then lysed with Cell culture lysis buffer (Promega, Madison, WI, USA). Luciferase activity was measured by using Luciferase assay systems (Promega, Madison, WI, USA). The resulting luminescence was detected as described above.

[6] = 216 h, HepG2.2.15.7 cells, 9 days post-treatment, supernatant HBV DNA

| SMILES | CC50 at 9 days [1] | Selectivity Index (CC50/EC50) ([2]; HepG2.2.15.7 cells) | EC50 [2, 6] | Effect on cell cycle [3] | Effect on Tie2 kinase activity [4] | IC50 [5] | EC50 ([2]; HepG2.2.15.7, 216 h) |
| --- | --- | --- | --- | --- | --- | --- | --- |
| Oc1cc(Br)cc(Br)c1Oc1ccc(Br)cc1Br [Compound 1, 3,5-dibromo-2-(2,4-dibromophenoxy)-phenol] | 4.19 ± 0.12 µM | 18.2 | 230 ± 70 nM | induces G1 phase cell cycle arrest | suppressed activity of Tie2 kinase | 2.3 µM |  |
| Oc1cc(Br)c(Br)c(Br)c1Oc1ccc(Br)cc1Br [Compound 2, 3,4,5-tribromo-2-(2,4-dibromophenoxy)-phenol] | 10.3 ± 3.69 µM | 12.8 | 800 ± 340 nM |  |  | 4.9 µM |  |
| C=C1[C@H](CO)[C@@H](O)C[C@@H]1n1cnc2c(=O)[nH]c(N)nc21 [Entecavir, reference compound] | > 100 µM | >4761 |  |  |  |  | 21 ± 3 nM |
